Assay results from US8586522B2, “Glycol dilevulinates as coupling agents in cleaning formulations” (Dow Global Technologies LLC, priority 2011, dated 2013).

What was measured:
[1] = Water solubility of alkylene glycol dilevulinates; assay type: physicochemical
Excerpt: Ethylene glycol dilevulinate (EGDL) is 100% water soluble while 1,2-propylene glycol dilevulinate (1,2-PGDL) is 10% soluble by weight in water, and 1,3-propylene glycol dilevulinate (1,3-PGDL) is 25% soluble. All three compounds also dissolve aromatic hydrocarbon compounds such as toluene and xylene, while having limited solubility for simple aliphatic hydrocarbons such as hexane and cyclohexane. Thus, C2-C3 alkylene glycol dilevulinates appear to provide the greatest benefits when used as coupling agents in water-based cleaning formulations.

[2] = Coupling effectiveness / phase stability with d-limonene (Sets I & II); assay type: physicochemical; parameters: key to appearance of sample formulation (coupling of d-limonene): clear: Clear indicates successful coupling of the d-limonene; cloudy indicates poor or no coupling; conditions: for effectiveness at coupling d-limonene: absence of surfactant (0% SLS); for d-limonene level successfully coupled: 1% SLS, solvent at a 20% level, highest d-limonene level tested; for appearance of sample formulation (coupling of d-limonene): 20% coupling agent, Column 6
Experimental: Two sets of experiments (I & II) were performed to determine the relative coupling effectiveness of fragrance (d-limonene)-containing aqueous formulations having various traditional coupling agents (glycol ethers) and those having various alkylene glycol dilevulinates as the coupling agents, at various temperatures (5° C., room temperature (25° C.) and 40° C.). The details are provided below and the results are shown in diagrams provided in FIGS. 1-16 and explained hereinbelow.
Stock solutions were prepared that contained the main components which didn't change throughout these experiments. Each formulation contained the following standard ingredients: […]
With reference now to the figures, FIGS. 1-8 relate to the Set of Comparative Examples. Each circle represents one sample formulation. More particularly, each of FIGS. 1 & 5 provide a schematic grid diagram of the general layout of sample formulations having various types of glycol ethers as coupling agents and various amounts of d-limonene fragrance, in the presence of 1% SLS surfactant and absence (0% SLS) of surfactant.
FIGS. 2-4 & 6-8 show the results (clear/white or cloudy/black) for the sample formulations identified in the grids of FIGS. 1 and 5 at 5° C., room temperature (25° C.), and 40° C., respectively. Clear indicates successful coupling of the d-limonene and cloudy indicates poor or no coupling.
FIGS. 9-16 relate to the Set II of Working Examples. As with FIGS. 1-8, each circle represents one sample formulation. More particularly, FIG. 9 provides a schematic grid diagram of the general layout of sample formulations having various types of alkylene glycol dilevulinates as coupling agents and various amounts of d-limonene fragrance. For instance, rows A & B of the grid in FIG. 9 were formulations that each had 0.25% by weight d-limonene. Thus, rows A & B of each of FIGS. 10-12 & 14-16 depict formulations that had 0.25% by weight d-limonene.
FIGS. 10-12 & 14-16 show the results (clear/white or cloudy/black) for the sample formulations identified in the grids of FIGS. 9 & 13 at 5° C., room temperature (25° C.), and 40° C., respectively. Clear indicates successful coupling of the d-limonene and cloudy indicates poor or no coupling.

| SMILES | water soluble / soluble by weight in water [1] | effectiveness at coupling d-limonene [2] | d-limonene level successfully coupled [2] | other results |
| --- | --- | --- | --- | --- |
| CC(=O)CCC(=O)OCC(C)OC(=O)CCC(C)=O (centres unmarked) [1,2-PGDL, 1,2-propylene glycol dilevulinate] | 10% | – | – | – |
| CC(=O)CCC(=O)OCCCOC(=O)CCC(C)=O [1,3-PGDL, 1,3-propylene glycol dilevulinate] | 25% | – | – | – |
| CC(=O)CCC(=O)OCCCOC(=O)CCC(C)=O [1,3-propylene glycol dilevulinate] | – | better than 1,2-propylene glycol dilevulinate | – | – |
| COC(C)COC(C)CO (centres unmarked) [DOWANOL DPM, dipropylene glycol methyl ether] | – | – | 3% | d-limonene level coupled into an aqueous mixture ([2]; absence of added SLS surfactant): more than 0.25% |
| CC(=O)CCC(=O)OCCOC(=O)CCC(C)=O [EGDL, ethylene glycol dilevulinate] | 100% | better than 1,2-propylene glycol dilevulinate | – | appearance of sample formulation (coupling of d-limonene) ([2]; 5° C. (FIG. 2), 1.5% d-limonene, Row F): clear; appearance of sample formulation (coupling of d-limonene) ([2]; 40° C., 1.5% d-limonene, Row F): cloudy; appearance of sample formulation (coupling of d-limonene) ([2]; room temperature (FIG. 3), 1.5% d-limonene, Row F): clear |
| CCCCCCOCCOCCO [HxCb, diethylene glycol n-hexyl ether] | – | – | 3% | appearance of sample formulation (coupling of d-limonene) ([2]; 5° C. (FIG. 2), 0.75% d-limonene, Row D): cloudy; appearance of sample formulation (coupling of d-limonene) ([2]; 40° C., 0.75% d-limonene, Row D): cloudy; appearance of sample formulation (coupling of d-limonene) ([2]; room temperature (FIG. 3), 0.75% d-limonene, Row D): clear |
